Data from patent publication US12427168B2, “Extracellular vesicle and use thereof in skin products” (EV CELL BIOTECH (GUANGZHOU) CO., LTD., priority 2020, dated 2025).

Legend:
[1] = test system: skin mesenchymal stem cells; experiment: Uptake of IEVs by skin mesenchymal stem cells, cell smear; assay type: cell-based; conditions: FIG. 13D
Wnt signaling pathways = experiment: Skin excretion of IEVs under Wnt agonist or inhibitor (Western Blot, immunofluorescence); assay type: in vivo; conditions: Licl 10 mg/kg or XAV939 1 mg/kg intraperitoneally for 3 days, FIGS. 13A-B
mice [2] = experiment: Wound healing of 1 cm×1 cm full-thickness wound; assay type: in vivo; conditions: for effect on promotion of wound healing by IEVs: with IEVs, FIG. 15B
Description: A 1 cm×1 cm full-thickness wound was made in mice, and the effect of systemic injections of MSCs and IEVs on wound healing was examined.

active-β-catenin = experiment: Active-β-catenin intensity in the skin, immunofluorescence; assay type: in vivo; conditions: with IEVs, FIG. 13E
mice [3] = experiment: Hair regrowth with IEVs alone or combined with anti-aging substances; assay type: in vivo; conditions: combined with IEVs, FIG. 12
Procedure: After systemic injection of PKH26-IEV in C57 mice, rapamycin (5 mg/kg), metformin (100 mg/kg), dadatinib (5 mg/kg) and resveratrol (10 mg/kg) were intraperitoneally injected for 7 days, respectively.

Row | Compound | effect on uptake of IEVs by skin mesenchymal stem cells [1] | effect on skin excretion of IEVs (Wnt signaling pathways) | IEVs accumulation in the wound site (mice [2]; immunofluorescence, FIG. 15C) | effect on promotion of wound healing by IEVs (mice [2]) | effect on IEV-stimulated activation of Wnt signaling pathways in the skin (active-β-catenin) | effect of the combination on hair regrowth promotion by IEVs (mice [3])
1 | [Cl-].[Li+] [Licl] | affected | significant increase in skin excretion of IEVs | significantly increased IEVs accumulation in the wound site | accelerated the promotion of wound healing by IEVs |  | 
2 | Oc1nc(-c2ccc(C(F)(F)F)cc2)nc2c1CSCC2 [XAV939] | affected |  |  | significantly attenuated the promotion of wound healing by IEVs | attenuated this activation process | 
3 | CN(C)C(=N)N=C(N)N [metformin] |  |  |  |  |  | promoted the promotion effects of hair regrowth by IEVs
4 | Oc1ccc(C=Cc2cc(O)cc(O)c2)cc1 [resveratrol] |  |  |  |  |  | promoted the promotion effects of hair regrowth by IEVs
